Laboratory results from PMC10124904, “Activation of Gcn2 by small molecules designed to be inhibitors” (The Journal of Biological Chemistry, 2023).
Values joined by “and” are separate entries in the source; they are usually repeats but may differ in a detail not shown here. Equal entries are not always repeated. Blank lines part the entries; values can stand above or below the molecule they belong to.

Experiments:
Type in all cases: cell-based
Gcn2 [1] = molecular target: T1, Gcn2 (Homo sapiens, UniProt Q9P2K8); assay: P(AAREx6)-Luc Atf4 transcriptional activity reporter in HEK293 cells; conditions: for dose response of Atf4 activity (P(AAREx6)-Luc): 2× serial dilution from 78 nM to 20 μM
T1 construct: HEK293 cells expressing endogenous WT Gcn2 (End WT); endogenous in cells; host or cells: HEK293 (HEK293A with integrated P(AAREx6)-Luc; HEK293/HEK293T)
Method: HEK-derived cells were used in this study. HEK293T cells were obtained from American Type Culture Collection. HEK293A cells were purchased from Invitrogen. Cells were cultured in Dulbecco's modified Eagle's medium (DMEM) (Corning 10-013-CV) supplemented with 10% (vol/vol) fetal bovine serum (Corning 35-010-CV), 100 U/ml penicillin, and 0.1 mg/ml streptomycin (Hyclone SV30010), hereafter referred to as DMEM complete, at 37 °C in 5% CO2 humidified incubator. […] To create cells stably expressing a luciferase reporter for Atf4 transcription activity, HEK293A cells were transduced with a lentivirus encoding an Atf4 transcription reporter (P(AAREx6)-Luc), which consists of six copies of C/ebp-Atf4 consensus binding sequence (5′-[…]-3′) upstream of a minimal promoter followed by the firefly luciferase coding sequence. Selection of the stable expression of the luciferase reporter was selected in DMEM complete supplemented with 1 μg/ml puromycin.
For transcriptional reporter assays, HEK293-P(AAREx6)-Luc cells were seeded into 96-well plate at 10,000 cells/well and cultured in DMEM complete at 37 °C with 5% CO2 overnight. After 24 h, cells were treated with HF or Gcn2iB, as indicated. After 6 h of culture, the media was replaced with 1:1 dilution of DMEM complete to Bio-Glo luciferase assay reagent (Promega Cat # G7940). The assay plate was incubated at room temperature for 15 min at 200 rpm on rotary plate shaker and then luminescence was read on BioTek Synergy H1 microplate reader using 1 s integration time and gain setting between 135 and 200. Luciferase activity was measured as luminescence for each of three experiments per treatment.

Flag-Gcn2 K619A = molecular target: T2, Flag-Gcn2 K619A (Homo sapiens, UniProt Q9P2K8, K619A); assay: Atf4-Luc translational reporter, Gcn2 KO HEK293 cells expressing Flag-Gcn2 K619A; conditions: 50 nM Gcn2iB, 1 μM neratinib, 2 μM dovitinib or 2 μM dabrafenib, 6 h
T2 construct: Transomic Technologies) was inserted into pCDNA5; expressed in transfected cells; host or cells: HEK293 Gcn2 KO cells, transient transfection
Excerpt: (§1) The human Gcn2 coding sequence from pENTR223-1 Gcn2 (NM_001013703; Transomic Technologies) was inserted into pCDNA5 to create an amino-terminal 3× flag tag fusion with Gcn2 by using an In-Fusion HD cloning kit and a three-way cloning reaction method. The resulting plasmid pCDNA5-Gcn2, referred to in the text as Flag-Gcn2, was used as a template to construct the mutant versions detailed in Table 1 by site-directed mutagenesis using an In-Fusion HD cloning kit (Takara Bio). The Gcn2 expressing plasmid was introduced transiently into the HEK293-Gcn2 KO cells as described in the following complementation section. Plasmid pMSCV-Gadd34-puro contains the human Gadd34 (PPP1R15A, NM_014330.5) gene subcloned into the NcoI/EcoRI sites of the retroviral vector pMSCV-puro ([24]).
(§2) For translational reporter assays, HEK293-Gcn2 KO cells were cotransfected with WT or mutant Gcn2 and the reporter Atf4-Luc and nano-luciferase plasmids and then treated with HF or Gcn2iB. Gcn2 activity was measured in a dual luciferase assay. To perform this experiment, HEK293-Gcn2 KO cells were seeded into 12-well plates at 50,000 cells/well. […] For experiments with Gadd34 expression, 100 ng of vector control or Gadd34 expression plasmid was included in the transfection. […] The Atf4-Luc and nano-luciferase signals were measured with Nano-Glo Dual-Luciferase Reporter Assay kit (Promega Cat #N1620) using a Turner Biosystems 20/20 luminometer. Firefly luciferase activity was normalized to nano-luciferase control for each of three biological replicates.

Gcn2 [2] = molecular target: T1, Gcn2; assay: Immunoblot of ISR markers (p-Gcn2, p-eIF2α, Atf4) in HEK293 cells with endogenous Gcn2 (End. WT)
Flag-Gcn2 T899A = molecular target: T3, Flag-Gcn2 T899A (Homo sapiens, UniProt Q9P2K8, T899A); assay: Atf4-Luc translational reporter, Gcn2 KO HEK293 cells expressing Flag-Gcn2 T899A; conditions: 6 h; for increase in Atf4-Luc activity: T899A Gcn2, 50 nM Gcn2iB, 1 μM neratinib, 2 μM dovitinib or 2 μM dabrafenib
T3 construct: Transomic Technologies) was inserted into pCDNA5; expressed in transfected cells; host or cells: HEK293 Gcn2 KO cells, transient transfection
Excerpt: as §1, §2

[3] = molecular target: T4, Flag-Gcn2 M2 (F1143L/R1144L) (Homo sapiens, UniProt Q9P2K8, F1143L/R1144L); assay: Atf4-Luc translational reporter, Gcn2 KO HEK293 cells expressing Flag-Gcn2 M2; conditions: 50 nM Gcn2iB, 1 μM neratinib, 2 μM dovitinib or 2 μM dabrafenib, 6 h
T4 construct: Transomic Technologies) was inserted into pCDNA5; expressed in transfected cells; host or cells: HEK293 Gcn2 KO cells, transient transfection
Excerpt: as §1
(§3) For translational reporter assays, HEK293-Gcn2 KO cells were cotransfected with WT or mutant Gcn2 and the reporter Atf4-Luc and nano-luciferase plasmids and then treated with HF or Gcn2iB. Gcn2 activity was measured in a dual luciferase assay. To perform this experiment, HEK293-Gcn2 KO cells were seeded into 12-well plates at 50,000 cells/well. […] The Atf4-Luc and nano-luciferase signals were measured with Nano-Glo Dual-Luciferase Reporter Assay kit (Promega Cat #N1620) using a Turner Biosystems 20/20 luminometer. […]

Gcn2 [4] = molecular target: T1, Gcn2; assay: Atf4-Luc translational reporter in HEK293 cells (endogenous Gcn2); conditions: 6 h
Flag-Gcn2 WT = molecular target: T5, Flag-Gcn2 WT (Homo sapiens, UniProt Q9P2K8); assay: Atf4-Luc translational reporter, Gcn2 KO HEK293 cells expressing Flag-Gcn2 WT; conditions: 50 nM Gcn2iB vs vehicle, 6 h
T5 construct: Transomic Technologies) was inserted into pCDNA5; expressed in transfected cells; host or cells: HEK293 Gcn2 KO cells, transient transfection of pCDNA5-Gcn2
Excerpt: as §1, §3

Flag-Gcn2 M802V = molecular target: T6, Flag-Gcn2 M802V (Homo sapiens, UniProt Q9P2K8, M802V); assay: Atf4-Luc translational reporter, Gcn2 KO HEK293 cells expressing Flag-Gcn2 M802V; conditions: 4 nM Gcn2iB, 6 h
T6 construct: Transomic Technologies) was inserted into pCDNA5; expressed in transfected cells; host or cells: HEK293 Gcn2 KO cells, transient transfection
Excerpt: as §1, §3

Flag-Gcn2 M802F = molecular target: T7, Flag-Gcn2 M802F (Homo sapiens, UniProt Q9P2K8, M802F); assay: Atf4-Luc translational reporter, Gcn2 KO HEK293 cells expressing Flag-Gcn2 M802F; conditions: Gcn2iB concentrations up to 4 μM, 6 h
T7 construct: Transomic Technologies) was inserted into pCDNA5; expressed in transfected cells; host or cells: HEK293 Gcn2 KO cells, transient transfection
Excerpt: as §1, §3

[5] = 2 μM tunicamycin, 6 h, immunoblot
[6] = 25 nM HF, time course up to 6 h
[7] = Gcn2iB pretreatment 30 min, then 12.5 nM HF 6 h

T3 sequence (Q9P2K8 whole entry T899A): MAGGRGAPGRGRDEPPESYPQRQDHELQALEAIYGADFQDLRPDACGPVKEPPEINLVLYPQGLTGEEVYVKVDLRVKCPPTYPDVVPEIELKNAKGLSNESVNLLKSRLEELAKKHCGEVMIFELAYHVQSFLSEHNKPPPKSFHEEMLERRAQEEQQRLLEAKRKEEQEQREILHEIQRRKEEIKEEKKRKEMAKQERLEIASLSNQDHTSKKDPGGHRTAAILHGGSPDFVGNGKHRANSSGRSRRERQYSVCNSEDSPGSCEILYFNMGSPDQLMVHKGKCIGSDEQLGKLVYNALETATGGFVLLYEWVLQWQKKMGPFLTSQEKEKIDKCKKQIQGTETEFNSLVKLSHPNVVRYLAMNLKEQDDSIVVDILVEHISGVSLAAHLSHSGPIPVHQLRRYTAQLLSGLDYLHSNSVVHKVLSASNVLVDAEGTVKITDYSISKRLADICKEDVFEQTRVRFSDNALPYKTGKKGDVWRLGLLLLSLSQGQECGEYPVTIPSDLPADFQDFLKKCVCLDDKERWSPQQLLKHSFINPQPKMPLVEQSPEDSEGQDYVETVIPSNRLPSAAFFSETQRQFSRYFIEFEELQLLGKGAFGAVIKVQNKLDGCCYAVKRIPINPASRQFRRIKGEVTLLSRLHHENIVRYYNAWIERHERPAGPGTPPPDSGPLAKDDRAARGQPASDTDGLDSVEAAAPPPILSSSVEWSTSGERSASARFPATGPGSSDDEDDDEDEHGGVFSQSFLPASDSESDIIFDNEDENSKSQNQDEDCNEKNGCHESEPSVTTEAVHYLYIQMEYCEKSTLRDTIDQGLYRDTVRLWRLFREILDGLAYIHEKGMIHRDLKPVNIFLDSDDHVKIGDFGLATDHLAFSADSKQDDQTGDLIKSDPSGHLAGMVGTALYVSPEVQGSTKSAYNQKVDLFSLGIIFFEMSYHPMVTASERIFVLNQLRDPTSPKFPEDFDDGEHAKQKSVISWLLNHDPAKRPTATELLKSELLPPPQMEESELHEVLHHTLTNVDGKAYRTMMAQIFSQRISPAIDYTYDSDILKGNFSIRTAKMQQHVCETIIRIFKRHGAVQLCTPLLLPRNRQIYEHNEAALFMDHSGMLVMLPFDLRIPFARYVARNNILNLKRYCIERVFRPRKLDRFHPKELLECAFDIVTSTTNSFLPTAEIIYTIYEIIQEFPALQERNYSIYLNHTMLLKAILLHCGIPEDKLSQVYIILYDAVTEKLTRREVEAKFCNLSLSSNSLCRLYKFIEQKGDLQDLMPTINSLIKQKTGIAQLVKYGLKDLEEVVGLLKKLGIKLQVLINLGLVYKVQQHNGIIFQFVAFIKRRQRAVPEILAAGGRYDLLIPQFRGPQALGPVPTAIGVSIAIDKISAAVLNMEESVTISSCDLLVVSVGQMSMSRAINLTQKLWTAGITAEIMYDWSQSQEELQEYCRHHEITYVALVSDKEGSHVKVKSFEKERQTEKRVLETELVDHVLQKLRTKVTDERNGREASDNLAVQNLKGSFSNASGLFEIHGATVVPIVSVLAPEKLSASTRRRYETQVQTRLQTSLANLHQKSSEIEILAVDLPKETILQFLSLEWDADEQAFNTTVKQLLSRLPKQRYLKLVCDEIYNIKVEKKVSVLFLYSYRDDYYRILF
T2 sequence (Q9P2K8 whole entry K619A): as the sequence (Q9P2K8 whole entry T899A) above, with K619A, A899T counted along it
T1 sequence (Q9P2K8 whole entry): as the sequence (Q9P2K8 whole entry T899A) above, with A899T counted along it
T4 sequence (Q9P2K8 whole entry F1143L/R1144L): as the sequence (Q9P2K8 whole entry T899A) above, with A899T, F1143L, R1144L counted along it
T5 sequence (Q9P2K8 whole entry): as the sequence (Q9P2K8 whole entry T899A) above, with A899T counted along it
T6 sequence (Q9P2K8 whole entry M802V): as the sequence (Q9P2K8 whole entry T899A) above, with M802V, A899T counted along it
T7 sequence (Q9P2K8 whole entry M802F): as the sequence (Q9P2K8 whole entry T899A) above, with M802F, A899T counted along it

dose response of Atf4 activity (P(AAREx6)-Luc) (Gcn2 [1]; 6 h): biphasic induction | increase in Atf4-Luc activity (Flag-Gcn2 K619A): no increase
Molecule: CN1CCN(c2ccc3nc(-c4c(N)c5c(F)cccc5[nH]c4=O)[nH]c3c2)CC1 [dovitinib]

Levels Atf4-Luc, fold change upon treatment (Flag-Gcn2 WT): 2.7 fold and 3 fold | increase in Atf4-Luc activity relative to untreated M802V cells (Flag-Gcn2 M802V): 2 fold | Levels Atf4-Luc, fold change upon treatment (Flag-Gcn2 T899A; 50 nM Gcn2iB vs vehicle, Flag-Gcn2 T899A): 2.8 fold | increase in Atf4-Luc activity (Flag-Gcn2 T899A): able to increase Atf4-Luc activity | effect on HF-induced P(AAREx6)-Luc activity (Gcn2 [1]; 25 nM HF + 2 μM Gcn2iB, 6 h): sharply reduced | Gcn2iB concentration at peak induction of luciferase activity (Gcn2 [1]; Gcn2iB only, absence of HF, 6 h): about 32 nM | peak induction of luciferase activity (P(AAREx6)-Luc) (Gcn2 [1]; Gcn2iB only, absence of HF, 6 h, biphasic): 7.8 fold | IC50 (Gcn2 [1]; Gcn2iB pretreatment 30 min, then 12.5 nM HF 6 h, read-out: IC50 for diminishing HF-induced P(AAREx6)-Luc luciferase signal): 73 nM | effect on HF-induced Atf4-Luc expression (Gcn2 [4]; 25 nM HF + 2 μM Gcn2iB): sharply diminished | increase in Atf4-Luc activity (Flag-Gcn2 K619A): no increase | increase in Atf4-Luc activity [3]: able to increase Atf4-Luc activity | time of maximal Atf4 expression (Gcn2 [2]; 50 nM Gcn2iB time course up to 6 h, WT cells): 6 h | induction of p-eIF2α (Gcn2 [2]; 50 nM Gcn2iB time course, WT cells, detected as early as 30 min): 2.7 fold | Gcn2iB concentration giving reductions in HF-induced Atf4 (Gcn2 [2]; [7]): ≥ 250 nM | Gcn2iB concentration giving reductions in HF-induced p-Gcn2 (Gcn2 [2]; [7]): ≥ 62.5 nM | Gcn2iB concentration above which p-Gcn2 was lowered below vehicle and Atf4 not appreciably induced (Gcn2 [2]; absence of HF, 6 h): Above 250 nM
Molecule: COc1ncc(Cl)cc1S(=O)(=O)Nc1ccc(F)c(C#Cc2cnc(N)nc2)c1F [Gcn2iB]
Atf4-Luc activity in Gcn2iB dose response (Flag-Gcn2 M802F): maintained the same level of Atf4-Luc activity

effect on biphasic induction of luciferase activity by Gcn2iB (Gcn2 [1]; pretreated 30 min with 1 μM A-92 or 2 μM 2B-Act, then Gcn2iB 6 h): ablated | effect of cotreatment on Gcn2iB-induced p-eIF2α and Atf4 levels (Gcn2 [2]; 1 μM A-92 or 2 μM 2B-Act pretreatment 30 min, then 50 nM Gcn2iB 6 h): lowered p-eIF2α and Atf4 levels
Molecule: O=C(COc1ccc(Cl)c(F)c1)NC12CC(NC(=O)c3cnc(C(F)F)cn3)(C1)C2 [2B-Act]

Second part, the molecule before the results:

Molecule: tunicamycin
p-eIF2α and Atf4 (Gcn2 [2]; [5]): induced p-eIF2α and Atf4 | phosphorylation of Gcn2 (T899) (Gcn2 [2]; [5]): minimal phosphorylation of Gcn2

Molecule: CCOc1cc2ncc(C#N)c(Nc3ccc(OCc4ccccn4)c(Cl)c3)c2cc1NC(=O)/C=C/CN(C)C [neratinib]
increase in Atf4-Luc activity (Flag-Gcn2 T899A): able to increase Atf4-Luc activity | dose response of Atf4 activity (P(AAREx6)-Luc) (Gcn2 [1]; 6 h): biphasic induction | increase in Atf4-Luc activity (Flag-Gcn2 K619A): no increase | increase in Atf4-Luc activity [3]: able to increase Atf4-Luc activity

Molecule: O=C(CC1NCCCC1O)Cn1cnc2cc(Br)c(Cl)cc2c1=O (stereo not drawn) [HF, Halofuginone]
increase in luciferase signal (P(AAREx6)-Luc) (Gcn2 [1]; 12.5 nM HF, 6 h): approximately 30 fold | P(AAREx6)-Luc activity (Gcn2 [1]; 25 nM HF alone, 6 h): robust induction | Atf4-Luc expression (Gcn2 [4]; 25 nM HF alone): robust induction | time at which expression of Atf4 was enhanced (Gcn2 [2]; [6]): 1 h | time to increased p-Gcn2 and p-eIF2α (Gcn2 [2]; [6]): ≤ 30 min | Atf4 levels (Gcn2 [2]; 100 nM HF, 6 h, immunoblot): significant reduction
